Data on twelve molecules can be found in patent US20240116985A1, “STAPLED PEPTIDES AND METHODS THEREOF” (priority 2020, published 2024).

≈ marks a conversion by molar mass, not a printed value. Where two headings read alike, the source gives them in different places.

The term IC50 denotes the midpoint of a concentration-inhibition curve. For orientation: Solubility means the dissolved amount per volume that the medium holds. Higher therefore signals a readily soluble substance.

Series [1] has as its target T1, beta-catenin/TCF4 engagement (Homo sapiens, UniProt P35222).
T1 construct: expressed in transfected cells; host or cells: HEK293
T1 sequence (P35222 1-781): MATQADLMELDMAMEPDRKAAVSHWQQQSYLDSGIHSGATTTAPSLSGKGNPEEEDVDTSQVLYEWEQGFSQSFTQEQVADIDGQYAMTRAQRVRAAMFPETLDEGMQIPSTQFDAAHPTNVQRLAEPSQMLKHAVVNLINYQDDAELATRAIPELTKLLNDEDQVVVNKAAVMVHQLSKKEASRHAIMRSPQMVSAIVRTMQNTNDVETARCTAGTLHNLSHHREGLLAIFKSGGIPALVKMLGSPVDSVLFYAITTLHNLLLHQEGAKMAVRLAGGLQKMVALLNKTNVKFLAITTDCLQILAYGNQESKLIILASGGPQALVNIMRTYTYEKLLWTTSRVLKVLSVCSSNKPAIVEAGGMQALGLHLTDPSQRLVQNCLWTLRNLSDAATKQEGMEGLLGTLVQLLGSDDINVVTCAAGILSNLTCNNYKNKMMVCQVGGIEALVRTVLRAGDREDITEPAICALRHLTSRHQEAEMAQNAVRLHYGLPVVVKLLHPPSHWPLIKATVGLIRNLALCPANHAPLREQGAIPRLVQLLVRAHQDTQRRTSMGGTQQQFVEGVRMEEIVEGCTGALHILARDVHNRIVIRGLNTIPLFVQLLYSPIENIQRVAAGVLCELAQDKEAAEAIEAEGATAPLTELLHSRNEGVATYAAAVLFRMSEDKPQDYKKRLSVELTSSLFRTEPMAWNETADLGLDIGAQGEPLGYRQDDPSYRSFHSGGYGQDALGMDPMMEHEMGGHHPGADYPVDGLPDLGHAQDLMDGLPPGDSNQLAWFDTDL
In words: Nano-BRET target engagement assay (B-cat-Halo & TCF4-Luc in HEK293 cells). The format is cell-based. The note with it: absolute IC50; read-out: NanoBRET Abs IC50. Background: Bioluminescence resonance energy transfer reports proximity on the nanometre scale.

A short description of series [2]: Solubility in PBS. Type of series: physicochemical. An outline of the steps: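 PBS sample ultracentrifuged; supernatant run on HPLC vs. 50 μM peptide in DMSO standard. Solubility = (PBS peak area / DMSO peak area) × 50 uM.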
Series [3] has as its target T2, full-length beta-Catenin (Uniprot ID P35222) (Homo sapiens, UniProt P35222).
T2 construct: 10 nM full-length beta-Catenin (Uniprot ID P35222)
T2 sequence (P35222 1-781): T1 sequence (P35222 1-781)
The experiment in a line: Fluorescence polarization IC50 (beta-catenin / 5FAM-TCF4 10-53 competition). The format is binding. The note with it: fluorescence polarization; read-out: beta-Catenin FP IC50.

`CC(=O)N1CCC[C@]12CC=CCCCC1(CCCC=CCCCOC(=O)N3CC[C@@](C(=O)N[C@@H](Cc4c(F)c(F)c(F)c(F)c4F)C(=O)N[C@@H](Cc4csc5ccccc45)C(=O)N[C@@H](CCC(N)=O)C(N)=O)(C3)NC(=O)[C@H](CC(C)C)NC(=O)[C@H](Cc3ccccc3)NC(=O)[C@H](C)NC(=O)[C@H](C)NC(=O)[C@H](CC(=O)O)NC(=O)[C@H](CC(=O)O)NC1=O)NC(=O)[C@H](CC(C)(C)C)NC(=O)[C@H](CC(=O)O)NC2=O` (stereo partly drawn) [I-1185, Ac-PL3-Asp-Npg-B5-Asp-Asp-Ala-Ala-Phe-Leu-PyrS2-Pff-BztA-Gln-NH2]: the IC50 in series [1] came out at 26900 nM; in series [3] it was 203 nM. Besides, the Solubility in series [2] (Solubility (uM)) worked out at 33 µM (≈ 66 µg/mL).
As to `CC(=O)N1CCC[C@]12CC=CCCCC1(CCCC=CCCCOC(=O)N3CC[C@@](C(=O)N[C@@H](Cc4c(F)c(F)c(F)c(F)c4F)C(=O)N[C@@H](Cc4csc5ccccc45)C(=O)N[C@@H](CCC(N)=O)C(N)=O)(C3)NC(=O)[C@H](CC(N)=O)NC(=O)[C@H](Cc3ccccc3)NC(=O)[C@H](C)NC(=O)[C@H](C)NC(=O)[C@H](CC(=O)O)NC(=O)[C@H](CC(=O)O)NC1=O)NC(=O)[C@H](CC(C)(C)C)NC(=O)[C@H](CC(=O)O)NC2=O` (stereo partly drawn) [I-1186, Ac-PL3-Asp-Npg-B5-Asp-Asp-Ala-Ala-Phe-Asn-PyrS2-Pff-BztA-Gln-NH2], the IC50 in series [1] is 23600 nM; in series [3], 128 nM. Also, the Solubility in series [2] (Solubility (uM)) worked out at 46 µM (≈ 92.1 µg/mL).
The corresponding values for `CC(=O)N1CCC[C@]12CC=CCCCC1(CCCC=CCCCOC(=O)N3CC[C@@](C(=O)N[C@@H](Cc4c(F)c(F)c(F)c(F)c4F)C(=O)N[C@@H](Cc4csc5ccccc45)C(=O)N[C@@H](CO)C(N)=O)(C3)NC(=O)[C@H]([C@@H](C)O)NC(=O)[C@H](Cc3ccccc3)NC(=O)[C@H](C)NC(=O)[C@H](C)NC(=O)[C@H](CC(=O)O)NC(=O)[C@H](CC(=O)O)NC1=O)NC(=O)[C@H](CC1CCCCC1)NC(=O)[C@H](CC(=O)O)NC2=O` (stereo partly drawn) [I-1187, Ac-PL3-Asp-Cha-B5-Asp-Asp-Ala-Ala-Phe-Thr-PyrS2-Pff-BztA-Ser-NH2] are 28600 nM, 80.5 nM and 42 µM (≈ 82.9 µg/mL).
Turning to `CC(=O)N1CCC[C@]12CC=CCCCC1(CCCC=CCCCCCC[C@@](C)(C(=O)N[C@@H](Cc3ccsc3)C(=O)N[C@@H](Cc3csc4ccccc34)C(=O)N[C@@H](CCC(N)=O)C(N)=O)NC(=O)[C@H](CC(C)C)NC(=O)[C@H](Cc3ccccc3)NC(=O)[C@H](C)NC(=O)[C@H](C)NC(=O)[C@H](CC(=O)O)NC(=O)[C@H](CC(=O)O)NC1=O)NC(=O)[C@H](CC(C)(C)C)NC(=O)[C@H](CC(=O)O)NC2=O` (stereo partly drawn) [I-1188, Ac-PL3-Asp-Npg-B5-Asp-Asp-Ala-Ala-Phe-Leu-S8-3Thi-BztA-Gln-NH2], the results for the half-inhibitory concentration (IC50) in series [1] and in series [3] were 7200 nM and 22.5 nM, respectively. This molecule yielded a Solubility in series [2] (Solubility (uM)) of 18 µM (≈ 33.7 µg/mL).
`CC(=O)N1CCC[C@]12CC=CCCCC1(CCCC=CCCCCCC[C@@](C)(C(=O)N[C@@H](Cc3ccsc3)C(=O)N[C@@H](Cc3csc4ccccc34)C(=O)N[C@@H](Cc3c[nH]cn3)C(N)=O)NC(=O)[C@H](CC(C)C)NC(=O)[C@H](Cc3ccccc3)NC(=O)[C@H](C)NC(=O)[C@H](C)NC(=O)[C@H](CC(=O)O)NC(=O)[C@H](CC(=O)O)NC1=O)NC(=O)[C@H](CC(C)(C)C)NC(=O)[C@H](CC(=O)O)NC2=O` (stereo partly drawn) [I-1195, Ac-PL3-Asp-Npg-B5-Asp-Asp-Ala-Ala-Phe-Leu-S8-3Thi-BztA-His-NH2]: the half-inhibitory concentration (IC50) in series [1] was 16200 nM; in series [3], 29.5 nM. Moreover, the “Solubility” value in series [2] is 10 µM (≈ 18.8 µg/mL).
As for `CC(=O)N1CCC[C@]12CC=CCCCC1(CCCC=CCCCOC(=O)N3CC[C@@](C(=O)N[C@@H](Cc4ccsc4)C(=O)N[C@@H](Cc4csc5ccccc45)C(=O)N[C@@H](CCC(N)=O)C(N)=O)(C3)NC(=O)[C@H](CC(C)C)NC(=O)[C@H](Cc3ccccc3C#N)NC(=O)[C@H](C)NC(=O)[C@H](C)NC(=O)[C@H](CC(=O)O)NC(=O)[C@H](CC(=O)O)NC1=O)NC(=O)[C@H](CC(C)(C)C)NC(=O)[C@H](CC(=O)O)NC2=O` (stereo partly drawn) [I-1200, Ac-PL3-Asp-Npg-B5-Asp-Asp-Ala-Ala-2CNF-Leu-PyrS2-3Thi-BztA-Gln-NH2], the figures for the 50% inhibitory concentration (IC50) in series [1] and in series [3] were more than 20000 nM and 99 nM, respectively. This molecule also had a Solubility in series [2] (Solubility (uM)) of 48 µM (≈ 93.2 µg/mL).
The corresponding values for `CC(=O)N1CCC[C@]12CC=CCCCC1(CCCC=CCCCOC(=O)N3CC[C@@](C(=O)N[C@@H](Cc4ccsc4)C(=O)N[C@@H](Cc4csc5ccccc45)C(=O)N[C@@H](CCC(N)=O)C(N)=O)(C3)NC(=O)[C@H](CC(C)C)NC(=O)[C@H](Cc3cccc(C#N)c3)NC(=O)[C@H](C)NC(=O)[C@H](C)NC(=O)[C@H](CC(=O)O)NC(=O)[C@H](CC(=O)O)NC1=O)NC(=O)[C@H](CC(C)(C)C)NC(=O)[C@H](CC(=O)O)NC2=O` (stereo partly drawn) [I-1201, Ac-PL3-Asp-Npg-B5-Asp-Asp-Ala-Ala-3CNF-Leu-PyrS2-3Thi-BztA-Gln-NH2] are 19600 nM, 13 nM and 47 µM (≈ 91.3 µg/mL).
As to `CC(=O)N1CCC[C@]12CC=CCCCC1(CCCC=CCCCOC(=O)N3CC[C@@](C(=O)N[C@@H](Cc4ccsc4)C(=O)N[C@@H](Cc4csc5ccccc45)C(=O)N[C@@H](CCC(N)=O)C(N)=O)(C3)NC(=O)[C@H](CC(C)C)NC(=O)[C@H](Cc3ccc(C#N)cc3)NC(=O)[C@H](C)NC(=O)[C@H](C)NC(=O)[C@H](CC(=O)O)NC(=O)[C@H](CC(=O)O)NC1=O)NC(=O)[C@H](CC(C)(C)C)NC(=O)[C@H](CC(=O)O)NC2=O` (stereo partly drawn) [I-1202, Ac-PL3-Asp-Npg-B5-Asp-Asp-Ala-Ala-4CNF-Leu-PyrS2-3Thi-BztA-Gln-NH2], the values for the IC50 in series [1] and in series [3] were 16300 nM and 16 nM, respectively. Further, the “Solubility” value in series [2] stood at 50 µM (≈ 97.1 µg/mL).
In the case of `CC(=O)N1CCC[C@]12CC=CCCCC1(CCCC=CCCCOC(=O)N3CC[C@@](C(=O)N[C@@H](Cc4ccccc4C#N)C(=O)N[C@@H](Cc4csc5ccccc45)C(=O)N[C@@H](CCC(N)=O)C(N)=O)(C3)NC(=O)[C@H](CC(C)C)NC(=O)[C@H](Cc3ccccc3)NC(=O)[C@H](C)NC(=O)[C@H](C)NC(=O)[C@H](CC(=O)O)NC(=O)[C@H](CC(=O)O)NC1=O)NC(=O)[C@H](CC(C)(C)C)NC(=O)[C@H](CC(=O)O)NC2=O` (stereo partly drawn) [I-1203, Ac-PL3-Asp-Npg-B5-Asp-Asp-Ala-Ala-Phe-Leu-PyrS2-2CNF-BztA-Gln-NH2], the IC50 came to 10000 nM in series [1] and 16 nM in series [3]. In series [2], the “Solubility” value came out at 50 µM (≈ 96.8 µg/mL).
In the same order, the values of `CC(=O)N1CCC[C@]12CC=CCCCC1(CCCC=CCCCOC(=O)N3CC[C@@](C(=O)N[C@@H](Cc4ccsc4)C(=O)N[C@@H](Cc4csc5ccccc45)C(=O)N[C@@H](CCC(N)=O)C(N)=O)(C3)NC(=O)[C@H](CC(N)=O)NC(=O)[C@H](Cc3ccccc3)NC(=O)[C@H](C)NC(=O)[C@H](C)NC(=O)[C@H](CC(=O)O)NC(=O)[C@H](CC(N)=O)NC1=O)NC(=O)[C@H](CC(C)(C)C)NC(=O)[C@H](CC(=O)O)NC2=O` (stereo partly drawn) [I-1206, Ac-PL3-Asp-Npg-B5-Asn-Asp-Ala-Ala-Phe-Asn-PyrS2-3Thi-BztA-Gln-NH2] are 27800 nM, 32 nM and 50 µM (≈ 95.9 µg/mL).
Take `CC(=O)N1CCC[C@]12CC=CCCCC1(CCCC=CCCCOC(=O)N3CC[C@@](C(=O)N[C@@H](Cc4ccsc4)C(=O)N[C@@H](Cc4csc5ccccc45)C(=O)N[C@@H](CCC(N)=O)C(N)=O)(C3)NC(=O)[C@H](CC(C)C)NC(=O)[C@H](Cc3ccccc3)NC(=O)[C@H](C)NC(=O)[C@H](C)NC(=O)[C@H](CC(=O)O)NC(=O)[C@H](CC(N)=O)NC1=O)NC(=O)[C@H](CC(C)(C)C)NC(=O)[C@H](CC(=O)O)NC2=O` (stereo partly drawn) [I-1207, Ac-PL3-Asp-Npg-B5-Asn-Asp-Ala-Ala-Phe-Leu-PyrS2-3Thi-BztA-Gln-NH2]: the IC50 stood at 7500 nM in series [1] and 40 nM in series [3]. The molecule further yielded a Solubility in series [2] (Solubility (uM)) of 11 µM (≈ 21.1 µg/mL).
The corresponding values for `COCCOCCC(=O)N1CCC[C@]12CC=CCCCC1(CCCC=CCCCOC(=O)N3CC[C@@](C(=O)N[C@@H](Cc4ccccc4Cl)C(=O)N[C@@H](Cc4csc5ccccc45)C(=O)N[C@@H](C(N)=O)[C@H](C)O)(C3)NC(=O)[C@H](CC(N)=O)NC(=O)[C@H](Cc3ccccc3)NC(=O)[C@H](C)NC(=O)[C@H](C)NC(=O)[C@H](CC(=O)O)NC(=O)[C@H](CC(=O)O)NC1=O)NC(=O)[C@H](CC(C)(C)C)NC(=O)[C@H](CC(=O)O)NC2=O` (stereo partly drawn) [I-1253, mPEG2-PL3-Asp-Npg-B5-Asp-Asp-Ala-Ala-Phe-Asn-PyrS2-2C1F-BztA-dThr-NH2] are more than 20000 nM, 14 nM and 42 µM (≈ 84.3 µg/mL).
